Calls of active or inactive are those of the source. The calls are words filed in the database; no cut-off is given here.
Legend:
[1] = target: T1, Lysine-specific histone demethylase 1A (Homo sapiens, UniProt O60341); experiment: Drug metabolism assessed as LSD1 (unknown origin) mediated entinostat release; format: ADME
[2] = target: T1, Lysine-specific histone demethylase 1A
Description: Inhibition of human recombinant LSD1 using H3K4me2 peptide substrate preincubated for 15 mins followed by substrate addition and measured after 30 mins by fluorescence based assay

[3] = target: T2, Histone deacetylase (Homo sapiens) (UniProt Q13547+O15379+Q9UBN7+Q92769+Q9UQL6+Q8WUI4+Q9BY41+Q96DB2+P56524+Q9UKV0+Q969S8); experiment: Inhibition of HDAC in human PC-3 cells assessed as fold increase in acetylated H3K9 to H3 ratio at 0.3 uM incubated for 24 hrs by Western blotting analysis (reference value: 1); format: cell-based
[4] = target: T1, Lysine-specific histone demethylase 1A; experiment: Inhibition of LSD1 in human PC-3 cells assessed as fold increase in H3K4me2 to H3 ratio at 0.1 uM incubated for 24 hrs by Western blotting analysis (reference value: 1); format: cell-based
PC-3 = experiment: cells; settings: Homo sapiens, PC-3, 72 h
Description: Antiproliferative activity against human PC-3 cells incubated for 3 days by alamar blue assay

[5] = target: T1, Lysine-specific histone demethylase 1A; experiment: Potency index, ratio of PCPA IC50 to test compound IC50 for inhibition of human recombinant LSD1
HL-60 = experiment: cells; settings: Homo sapiens, HL-60, 72 h
Description: Antiproliferative activity against human HL-60 cells incubated for 3 days by alamar blue assay

[6] = target: T1, Lysine-specific histone demethylase 1A; experiment: Inhibition of LSD1 in human PC-3 cells assessed as fold increase in H3K4me2 to H3 ratio at 1 uM incubated for 24 hrs by Western blotting analysis (reference value: 1); format: cell-based
LN-18 = experiment: cells; settings: Homo sapiens, LN-18, 72 h
Description: Antiproliferative activity against human LN-18 cells incubated for 3 days by alamar blue assay

[7] = target: T1, Lysine-specific histone demethylase 1A; experiment: Inhibition of LSD1 in human PC-3 cells assessed as fold increase in H3K4me2 to H3 ratio at 0.3 uM incubated for 24 hrs by Western blotting analysis (reference value: 1); format: cell-based
[8] = target: T1, Lysine-specific histone demethylase 1A; experiment: Inhibition of LSD1 in human PC-3 cells assessed as increase in H3K4me2 level incubated for 24 hrs by Western blotting analysis; format: cell-based; settings: dose 0.1-1 µM
in vitro = settings: human, PrEC cells
Description: Cytotoxicity against human PrEC cells incubated for 3 days by alamar blue assay

[9] = target: T2, Histone deacetylase (Homo sapiens); experiment: Inhibition of HDAC in human PC-3 cells assessed as H3K9 acetylation at 0.1 to 1 uM incubated for 24 hrs by Western blotting analysis; format: cell-based; settings: dose 0.1-1 µM
[10] = target: T2, Histone deacetylase (Homo sapiens); experiment: Inhibition of HDAC in human PC-3 cells assessed as fold increase in acetylated H3K9 to H3 ratio at 1 uM incubated for 24 hrs by Western blotting analysis (reference value: […]); format: cell-based
[11] = target: T1, Lysine-specific histone demethylase 1A; experiment: Drug metabolism assessed as LSD1 (unknown origin) mediated entinostat release incubated for 24 hrs by HPLC analysis; format: ADME
[12] = target: T2, Histone deacetylase (Homo sapiens); experiment: Inhibition of HDAC in human PC-3 cells assessed as fold increase in acetylated H3K9 to H3 ratio at 0.1 uM incubated for 24 hrs by Western blotting analysis (reference value: […]); format: cell-based

SMILES | Drug metabolism [1] | IC50 [2] [µM] | fold change (FC) [3] | fold change (FC) [4] | GI50 (PC-3) [µM] | Ratio IC50 [5] | GI50 (HL-60) [µM] | fold change (FC) [6] | GI50 (LN-18) [µM] | fold change (FC) [7] | inhibition [8] | GI50 at 72 h (in vitro) [µM] | inhibition [9] | fold change (FC) [10] | Drug metabolism [11] | fold change (FC) [12]
CN(CCN(C)C1CC1c1ccccc1)C(=O)Nc1ccccc1NC(=O)c1ccc(CNC(=O)OCc2cccnc2)cc1 (stereo unspecified) | Metabolite_Notdetected | 50.3 |  |  |  |  |  |  |  |  |  |  |  |  |  | 
CN(CCN(C)C1CC1c1ccccc1)C(=O)Oc1ccc(COC(=O)Nc2ccccc2NC(=O)c2ccc(CNC(=O)OCc3cccnc3)cc2)cc1 (stereo unspecified) |  | 0.626 | 1.77 | 1.18 | 1.18 | 40 | 4.49 | 1.58 | 5.62 | 1.49 | Dose-Dependent Effect | > 100 | Active | 2.01 | Metabolite_Detected | 1.48
Nc1ccccc1NC(=O)c1ccc(CNC(=O)OCc2cccnc2)cc1 [ENTINOSTAT] |  |  |  |  | 0.087 |  | 0.214 |  | 0.917 |  |  | 2.23 |  |  |  | 
